Measured values published in patent publication US8936809B2, “Method for treating prostate diseases based on local delivery of active substances” (Lidds AB, priority 2005, dated 2015).
Like-named read-outs stand apart in the source and are kept apart here.

Assays:
[1] = test system: androgen dependent tissue (bulbourethral gland); experiment: Local anti-androgen effect and side effects after implant into bulbourethral gland of male sheep (Example 2); assay type: in vivo
Protocol: The major purpose of the present animal study was to examine the pharmacokinetics, efficacy and safety of the novel local drug delivery system with 2-hydroxyflutamide, a selective antagonist to the androgen receptor (AR). A ceramic based drug delivery product was administered into an androgen dependent tissue (the bulbourethral gland) in male sheep. In total 11 male sheep were divided into two separate groups. One group was given 2-hydroxyflutamide by the local implant delivery system as a single administration into the bulbourethral gland and was monitored during 2 months. Each sheep in this treatment group received the prostate implant by a single dose of 250 mg. The other group only received ceramic formulation without any active drug substance.
The implant drug delivery system was inserted locally, via rectum, into the androgen dependent tissue (bulbourethral gland) through sterile needles during rectal ultrasound guidance. The animals were during anaesthesia throughout the insertion procedure. The sterile ceramic based implant had two major components: calcium sulphate (CaSO4-0.5H2O) and 2-hydroxyflutamide. The composition of the formulation was 250 mg 2-hydroxyflutamide+2.25 g calcium sulphate di-hydrate+5.0 g calcium sulphate hemi-hydrate and it was mixed with solution: 3.5 ml of water solution (with 1% acetic acid and 1% methyl cellulose). […]

[2] = Plasma pharmacokinetics and tissue level after local administration of ceramic-based controlled release composition into dog prostate (Example 1); assay type: in vivo
Protocol: One week later, the same animals were given 2-hydroxy-flutamide locally by a controlled release pharmaceutical composition in the prostate tissue. The 2-hydroxy- flutamide doses were 0 mg (H1), 30 mg (H3), 60 mg (H2) and 120 mg (H4), and each dog was given one implant only. Where H1 was a control given the composition without 2-hydroxy-flutamide. All doses of 2-hydroxy-flutamide were given after an overnight fast. Dog 1 (H1) and dog 3 (H3) were given an enema preoperatively. After the local prostate application of the pharmaceutical composition through rectum, an antibiotic (Quinolon) was administered in normal doses.
The controlled release pharmaceutical composition was composed of a calcium sulphate ceramic and 2-hydroxy-flutamide (Catalogue No. 161.01, from Micromol). To prepare the implant, a calcium sulfate hemi-hydrate (Calcium Sulfate-0.5-hydrate, Product No. 12090, from Riedel-de Haen) is mixed as a fine-grained powder with water and the active agent to form an injectable paste. The paste solidifies in-vivo in about 5 minutes to a solid implant. The ceramic powder to water ratio is 1:2 and the dose of active agent (30, 60 or 120 mg) is mixed with a total 0.8 ml of paste.
The controlled release pharmaceutical composition was inserted locally into the prostate tissue through needles by ultrasound guidance. The animals were under general anesthesia during the insertion procedure. The needle (15 cm long with an outer diameter of 0.9 mm) was inserted into the prepared rectum (an enema was given preoperatively) and was inserted through the rectal and abdominal wall and positioned in the prostate tissue by ultrasound guidance. The pharmaceutical composition was given as multiple thin strings of approximately 12 mm length and with a diameter of 1-2 mm.
After administration of the controlled release pharmaceutical composition in the prostate tissue, blood samples were taken during 3 weeks. Samples of 1.0 ml were taken from the Cephalic vein at day 0, after 6 hours and then in the morning at day 1, 2, 3, 4, 5, 6, 9, 12, 14, 16, 19 and 20 following the administration of the implant. The blood samples were immediately centrifuged at 3000 rpm and the plasma samples were frozen at −20° C. until analysis.
After day 20, each dog was terminated with an intravenous dose of a mixture of pentobarbital and potassium. The following organs were surgical removed and frozen: prostate, testis, liver and kidney for the assessment of effect and safety. These organs were carefully examined as a consequence of the local tissue exposure of 2-hydroxy-flutamide and the ceramic-based implant.
Quantification of 2-hydroxy-flutamide in plasma and tissue samples was done by HPLC-MS. HPLC was performed with a Surveyor HPLC system equipped with a CTC Pal autosampler. The analytical column was a Zorbax Eclipse XDB-18 (2.1 mm×50 mm, particle size 5 μm) connected to a guard column. The eluent consisted of solvent A (aqueous formic acid 0.1%) and B (acetonitrile), a linear gradient from 25 to 90% of solvent B in 5 minutes was applied. The proportion of solvent B was then lowered to 25% in one minute and was allowed to equilibrate at this level for two minutes prior to the next injection. The volumetric flow-rate was 200 μL/min and the injection volume was 20 μL. The HPLC column outlet was coupled to a TSQ Quantum Ultra tandem triple quadrupole mass spectrometer (ThermoFinnigan, San José, Calif., USA). The transition of m/z 291 [M-H]^−→205 was used for 2-hydroxy-flutamide and m/z 316 [M-H]^−→273 was used for nilutamide (internal standard). The limit of quantification was 0.50 ng/ml in dog plasma. Calibration samples were prepared by spiking blank plasma samples with 100 μL of solutions of 2-hydroxy-flutamide at different concentrations. […]

[3] = male, Labrador, plasma, dog H2, 60 mg local prostate implant
[4] = male, Labrador, plasma, dog H3, 30 mg local prostate implant
[5] = male, Labrador, plasma, dog H4, 120 mg local prostate implant

concentration in the prostate tissue ([2]; dogs, after three weeks of treatment with local implant): not possible to quantify
Cmax after intravenous dosing relative to Cmax after local implant dosing ([2]; dogs, i.v. 25 mg versus local implant 120 mg): about 6 times
half-life ([2]; male, Labrador, dog, plasma, 30 mg, dog H3, 30 mg local prostate implant, read-out: t1/2 (converted)): 2100 min
half-life ([2]; male, Labrador, dog, plasma, 60 mg, dog H2, 60 mg local prostate implant, read-out: t1/2 (converted)): 2700 min
half-life ([2]; male, Labrador, dog, plasma, 120 mg, dog H4, 120 mg local prostate implant, read-out: t1/2 (converted)): 2460 min
half-life ([2]; male, Labrador, dog, plasma, 120 mg, given in the ceramic composition, three dosed dogs (30, 60, 120 mg), read-out: elimination half-life): 2100 to 2700 min
bioavailability ([2]; male, Labrador, dog, plasma, dogs, local prostate implant, on average, read-out: bioavailability from the intraprostate tissue (approximation)): > 100%
AUC [2, 3]: 4020 ng·h/mL
Cmax [2, 3]: 69.5 ng/mL
Tmax [2, 3]: 6 h
AUC [2, 4]: 990 ng·h/mL
Cmax [2, 4]: 26.4 ng/mL
Tmax [2, 4]: 6 h
AUC [2, 5]: 9410 ng·h/mL
Cmax [2, 5]: 142 ng/mL
Tmax [2, 5]: 24 h
SMILES: CC(C)(O)C(=O)Nc1ccc([N+](=O)[O-])c(C(F)(F)F)c1 [2-hydroxy-flutamide]
androgen dependent side effect ([1]; 250 mg implant into bulbourethral gland): no androgen dependent side effect observed
macroscopic effect on the androgen dependent tissue (bulbourethral gland) ([1]; single intra-gland injection of 250 mg implant): decreased volume and weight
